Source: the NIST ThermoML archive (doi:10.1021/acs.jced.7b00946)

Test: molar heat capacity at constant pressure
Details: Gas, Flow calorimetry

C=C(F)C(F)(F)F [2,3,3,3-tetrafluoro-1-propene]
Details | molar heat capacity at constant pressure [J/K/mol]
373.15 K, 3498 kPa | 410.55
373.15 K, 4114 kPa | 394.58
373.15 K, 4160 kPa | 387.74
373.15 K, 4441 kPa | 288.53
373.15 K, 4642 kPa | 273.7
373.15 K, 4921 kPa | 245.19
373.15 K, 5047 kPa | 238.35
373.15 K, 5955 kPa | 210.98
373.15 K, 6023 kPa | 210.98
373.15 K, 8020 kPa | 187.03
373.15 K, 8021 kPa | 188.17
373.15 K, 8024 kPa | 188.17
393.15 K, 4039 kPa | 218.96
393.15 K, 4040 kPa | 217.82
393.15 K, 4943 kPa | 345.55
393.15 K, 4944 kPa | 339.84
393.15 K, 5417 kPa | 322.74
393.15 K, 5958 kPa | 278.26
393.15 K, 6022 kPa | 275.98
393.15 K, 7949 kPa | 205.27
393.15 K, 8043 kPa | 205.27
393.15 K, 10032 kPa | 188.17
413.15 K, 4015 kPa | 173.34
413.15 K, 4989 kPa | 207.56
413.15 K, 5045 kPa | 208.7
413.15 K, 6037 kPa | 244.05
413.15 K, 6963 kPa | 245.19
413.15 K, 6965 kPa | 241.77
413.15 K, 8042 kPa | 228.08
413.15 K, 8043 kPa | 228.08
413.15 K, 10030 kPa | 201.85
